The results in this text go back to patent publication EP4678629A1, “IONIZABLE LIPID MOLECULE, PREPARATION METHOD THEREFOR AND USE THEREOF” (Maxirna (Shanghai) Pharmaceutical Co., Ltd., priority 2023, dated 2024).

A short description of series [1]: Encapsulation efficiency of the lipid nanoparticle (eGFP mRNA) by Ribogreen method. In kind it is physicochemical. Conditions: LNP encapsulating eGFP mRNA, ionizable lipid/DOPE/cholesterol/DMG-PEG2000 50/10/48.25/1.25 mol%, N/P 12. The method, boiled down: (§1)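 LNPs were made by microfluidic mixing of ionizable lipid/DOPE/cholesterol/DMG-PEG2000 (50/10/48.25/1.25 mol%) in ethanol with eGFP mRNA in 20 mM citrate pH 6.1, N/P 12, then ultrafiltered into DPBS and 0.2 µm filtered. Size and PDI by DLS at 173° backscatter; encapsulation by Ribogreen.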

A short description of series [2]: Size and polydispersity index (PDI) of the lipid nanoparticle by dynamic light scattering. Conditions: LNP encapsulating eGFP mRNA, ionizable lipid/DOPE/cholesterol/DMG-PEG2000 50/10/48.25/1.25 mol%, N/P 12; for Particle size: in nm (unit assumed). In kind it is physicochemical. The method, boiled down: as §1
Series [3] is described as follows: In vitro transfection of cells with eGFP-mRNA lipid nanoparticle (LNP preparation), fluorescence imaging and flow cytometry. The class given is cell-based, mouse. Conditions: mouse, dc2.4 cells, 200 ng of mRNA per well, after 24 hours; read-out: Cell viability, %. The method, boiled down: (§2)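 Mouse bone marrow-derived DC2.4 dendritic cells seeded at 2 × 10^5 cells/well in DMEM with 10% FBS, transfected with eGFP-mRNA LNPs the next day at 37 °C, 5% CO2. After 24 hours, viability, eGFP-positive rate and mean fluorescence intensity read by fluorescence imaging and flow cytometry.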
(Flow cytometry measures light scatter and fluorescence of single cells or particles in a stream.)

The test system of the next series is DC2.4 cells. The description is as above. In kind it is cell-based, mouse. The conditions noted are these: eGFP positivity rate, DC2.4 cells, 200 ng of mRNA per well, after 24 hours. The method, boiled down:
as §2

`CCCCCCCCCCCCCOC(=O)CCN(CCCCO)CCCN(CCC(=O)OCCCCCCCCCCCCC)CCC(=O)OCCCCCCCCCCCCC` [Example 72, Ditridecyl 3,3'-((3-((4-hydroxybutyl)(3-oxo-3-(tridecyloxy)propyl)amino)propyl)azanediyl)dipropionate]: the “Encapsulation rate, %” value in series [1] came to 99.70%. Moreover, in series [2], the Particle size is recorded as 99.70. Further, in series [3], the viability at 24 h is 84%. In the series with DC2.4 cells, the “Positive rate, %” value came to 81.19%.
For the compound `CCCCCCCCCCCCOC(=O)CCCCCN(CCO)CCCN(CCCCCC(=O)OCCCCCCCCCCCC)CCCCCC(=O)OCCCCCCCCCCCC` [Example 44, Didodecyl 6,6'-((3-((6-(dodecoxy)-6-oxohexyl)(2-hydroxyethyl)amino)propyl)azahexyl)dihexanoate], the “Encapsulation rate, %” value in series [1] is reported as 99.38%. The same compound yielded a PDI in series [2] of 0.20. Further, the viability at 24 h in series [3] was found to be 91.9%. Also, the “Positive rate, %” value with DC2.4 cells is reported as 94.2%.
With `CCCCCCCCCCCOC(=O)CCCN(CCO)CCCCN(CCCC(=O)OCCCCCCCCCCC)CCCC(=O)OCCCCCCCCCCC` [Example 87], in series [1], the “Encapsulation rate, %” value was found to be 92.26%. In addition, in series [2], the PDI is recorded as 0.12 and the Particle size was 72.55. Moreover, in series [3], the viability at 24 h was determined as 97.5%. Also, the “Positive rate, %” value in the series on DC2.4 cells is on record as 96.15%.
The corresponding values for `CCCCCCCCCCCCOC(=O)CCCCCCN(CCO)CCCN(CCCCCCC(=O)OCCCCCCCCCCCC)CCCCCCC(=O)OCCCCCCCCCCCC` [Example 47, Didodecyl 7,7'-((3-((7-(dodecyloxy)-7-oxoheptyl)(2-hydroxyethyl)amino)propyl)azanediyl)diheptanoate] are 99.77%, 0.26, 83.85, 88.5% and 97.39%.
The corresponding values for `CCCCCCCCCCCCCCOC(=O)CCCCCN(CCCCO)CCCN(CCCCCC(=O)OCCCCCCCCCCCCCC)CCCCCC(=O)OCCCCCCCCCCCCCC` [Example 55, Ditetradecyl 6,6'-((3-((4-hydroxybutyl)(6-oxo-6-(tetradecyloxy)hexyl)amino)propyl)azanediyl)dihexanoate] are 98.32%, 0.10, 71.95, 86.6% and 92.64%.
The corresponding values for `CCCCCCCCCCCOC(=O)CCCCCN(CCCO)CCCN(CCCCCC(=O)OCCCCCCCCCCC)CCCCCC(=O)OCCCCCCCCCCC` [Example 27, Diundecyl 6,6'-((3-((3-hydroxypropyl)(6-oxo-6-(undecyloxy)hexyl)amino)propyl)azanediyl)dihexanoate] are 99.65%, 0.12, 88.43, 98.2% and 97.36%.
Take `CCCCCCCCCCCOC(=O)CCCN(CCCO)CCCCN(CCCC(=O)OCCCCCCCCCCC)CCCC(=O)OCCCCCCCCCCC` [Example 82, Diundecyl 4,4'-((4-((3-hydroxypropyl)(4-oxo-4-(undecyloxy)butyl)amino)butyl)azanediyl)dibutanoate]: the “Encapsulation rate, %” value in series [1] was determined as 99.74%. In series [2], this compound registered a PDI of 92.91 and a Particle size of 99.74. In series [3], the viability at 24 h is 76%. Also, the “Positive rate, %” value in the series with DC2.4 cells is 96.72%.
The corresponding values for `CCCCCCCCCCCCCOC(=O)CCCCCCN(CCCCO)CCCN(CCCCCCC(=O)OCCCCCCCCCCCCC)CCCCCCC(=O)OCCCCCCCCCCCCC` [Example 35] are 99.50%, 0.12, 92.18, 97.2% and 98.59%.
With `CCCCCCCCCCCOC(=O)CCCCCCCCCCCN(CCO)CCCN(CCCCCCCCCCCC(=O)OCCCCCCCCCCC)CCCCCCCCCCCC(=O)OCCCCCCCCCCC` [Example 23, Diundecyl 12,12'-((3-((2-hydroxyethyl)(12-oxo-12-(undecyloxy)dodecyl)amino)propyl)azanediyl)didodecanoate], the “Encapsulation rate, %” value in series [1] was 92.58%. Besides, the PDI in series [2] is listed as 0.26. In addition, the viability at 24 h in series [3] was 87.5%. Moreover, the “Positive rate, %” value with DC2.4 cells came out at 92.1%.
Turning to `CCCCCCCCCCCOC(=O)CN(CCO)CCCN(CC(=O)OCCCCCCCCCCC)CC(=O)OCCCCCCCCCCC` [Example 73, Diundecyl 2,2'-((3-((2-hydroxyethyl)(2-oxo-2-(undecyloxy)ethyl)amino)propyl)azanediyl)diacetate], in series [1], the “Encapsulation rate, %” value turned out to be 85.54%. In series [2], this compound came in with a Particle size of 85.54. The viability at 24 h in series [3] is 84.1%. The “Positive rate, %” value with DC2.4 cells was found to be 97.94%.
The corresponding values for `CCCCCCCCCCCCCOC(=O)CN(CCO)CCCN(CC(=O)OCCCCCCCCCCCCC)CC(=O)OCCCCCCCCCCCCC` [Example 76, Ditridecyl 2,2'-((3-((2-hydroxyethyl)(2-oxo-2-(tridecyloxy)ethyl)amino)propyl)azanediyl)diacetate] are 96.23%, 74.60, 95% and 98.01%.
Take `CCCCCCCCCCCCCOC(=O)CCN(CCCO)CCCN(CCC(=O)OCCCCCCCCCCCCC)CCC(=O)OCCCCCCCCCCCCC` [Example 71, Ditridecyl 3,3'-((3-((3-hydroxypropyl)(3-oxo-3-(tridecyloxy)propyl)amino)propyl)azanediyl)dipropionate]: in series [1], the “Encapsulation rate, %” value is on record as 98.30%. For the same compound, in series [2], the PDI was 85.88 and the Particle size is 98.30. Besides, in series [3], the viability at 24 h is 97.3%. Besides, the “Positive rate, %” value in the series on DC2.4 cells was 98.99%.
`CCCCCCCCCCCCCOC(=O)CCCCN(CCO)CCCN(CCCCC(=O)OCCCCCCCCCCCCC)CCCCC(=O)OCCCCCCCCCCCCC` [Example 39, Ditridecyl 5,5'-((3-((2-hydroxyethyl)(5-oxo-5-(tridecyloxy)pentyl)amino)propyl)azadiyl)dipentanoate]: the “Encapsulation rate, %” value in series [1] is on record as 97.58%. In series [2], this compound yielded a PDI of 0.13 and a Particle size of 89.31. For the same compound, in series [3], the viability at 24 h is 96.9%. Also, the “Positive rate, %” value in the series on DC2.4 cells is recorded as 91.26%.
As for `CCCCCCCCCCCOC(=O)CN(CCCCO)CCCN(CC(=O)OCCCCCCCCCCC)CC(=O)OCCCCCCCCCCC` [Example 75, Diundecyl 2,2'-((3-((4-hydroxybutyl)(2-oxo-2-(undecyloxy)ethyl)amino)propyl)azanediyl)diacetate], the “Encapsulation rate, %” value in series [1] is reported as 99.22%. Besides, in series [2], the PDI was 60.95 and the Particle size is 99.22. Besides, in series [3], the viability at 24 h is 90.3%. The “Positive rate, %” value in the series on DC2.4 cells is reported as 91.29%.
For the compound `CCCCCCCCCCCCCCOC(=O)CCCCCN(CCCO)CCCN(CCCCCC(=O)OCCCCCCCCCCCCCC)CCCCCC(=O)OCCCCCCCCCCCCCC` [Example 54, Ditetradecyl 6,6'-((3-((3-hydroxypropyl)(6-oxo-6-(tetradecyloxy)hexyl)amino)propyl)azanediyl)dihexanoate], the “Encapsulation rate, %” value in series [1] was 98.91%. In series [2], this compound displayed a PDI of 0.14 and a Particle size of 72.45. For the same compound, the viability at 24 h in series [3] was determined as 75.9%. In the series with DC2.4 cells, the “Positive rate, %” value came to 93.13%.
In the case of `CC/C=C\CCCCCOC(=O)CCCCCCCN(CCO)CCCN(CCCCCCCC(=O)OCCCCC/C=C\CC)CCCCCCCC(=O)OCCCCC/C=C\CC` [Example 8, Di((Z)-non-6-en-1-yl)8,8'-((3-((2-hydroxyethyl)(8-(((Z)-non-6-en-1-yl)oxo)-8-oxooctyl)amino)propyl)azanediyl)dioctanoate], the “Encapsulation rate, %” value in series [1] worked out at 80.59%. In series [2], the PDI was determined as 0.21. Further, the viability at 24 h in series [3] came out at 63.2%. For the same compound, the “Positive rate, %” value in the series on DC2.4 cells was determined as 82.12%.
Regarding `CCCCCCCCCCCCCOC(=O)CCCN(CCCCO)CCCN(CCCC(=O)OCCCCCCCCCCCCC)CCCC(=O)OCCCCCCCCCCCCC` [Example 65, Ditridecyl 4,4'-((3-((4-hydroxybutyl)(4-oxo-4-(tridecyloxy)butyl)amino)propyl)azanediyl)dibutanoate], in series [1], the “Encapsulation rate, %” value stood at 96.31%. Also, in series [2], the PDI turned out to be 0.20 and the Particle size was determined as 90.10. Further, the viability at 24 h in series [3] worked out at 60.3%. The “Positive rate, %” value in the series on DC2.4 cells is reported as 96.80%.
Turning to `CCCCCCCCCCCOC(=O)CCCCCCCN(CCCCCCCC(=O)OCCCCCCCCCCC)CCCN(CCCO)CCCN(CCCCCCCC(=O)OCCCCCCCCCCC)CCCCCCCC(=O)OCCCCCCCCCCC` [Example 98, Tetraundecyl 8,8',8",8"-(((3-hydroxypropyl)azanediyl)di(propane-3,1-diyl))di(azanetriyl)tetraoctanoate], the “Encapsulation rate, %” value in series [1] stood at 91.32%. Further, in series [2], the PDI worked out at 0.14 and the Particle size was 89.51. In addition, the viability at 24 h in series [3] stood at 96.9%. For the same compound, in the series on DC2.4 cells, the “Positive rate, %” value was 92.36%.

As a reminder, the viability is a per cent measure of how many cells are alive, often set against a control.
